In the NIST ThermoML archive (doi:10.1021/je100598x):
± gives the expanded uncertainty stated by the source.

Experiment: cn = amount concentration of the nth substance listed, in mol/dm3
Settings: 101 kPa, Liquid, Direct current cell with electrodes

Compound: CCCCCCCCCCCC[N+](CC)(CC)CC.[Br-] [dodecyltriethylammonium bromide] + O
- electrical conductivity (288.15 K, c1 = 0.001316): 0.0105 ± 0.00011 S/m
- electrical conductivity (288.15 K, c1 = 0.002597): 0.02 ± 0.0002 S/m
- electrical conductivity (288.15 K, c1 = 0.003846): 0.0289 ± 0.0003 S/m
- electrical conductivity (288.15 K, c1 = 0.005063): 0.0374 ± 0.0004 S/m
- electrical conductivity (288.15 K, c1 = 0.00625): 0.0456 ± 0.0005 S/m
- electrical conductivity (288.15 K, c1 = 0.007407): 0.053 ± 0.0005 S/m
- electrical conductivity (288.15 K, c1 = 0.008536): 0.0609 ± 0.0006 S/m
- electrical conductivity (288.15 K, c1 = 0.009638): 0.0681 ± 0.0007 S/m
- electrical conductivity (288.15 K, c1 = 0.01071): 0.0751 ± 0.0008 S/m
- electrical conductivity (288.15 K, c1 = 0.01177): 0.0818 ± 0.0008 S/m
- electrical conductivity (288.15 K, c1 = 0.01279): 0.0884 ± 0.0009 S/m
- electrical conductivity (288.15 K, c1 = 0.01379): 0.0946 ± 0.0009 S/m
- electrical conductivity (288.15 K, c1 = 0.01477): 0.0997 ± 0.001 S/m
- electrical conductivity (288.15 K, c1 = 0.01573): 0.1033 ± 0.001 S/m
- electrical conductivity (288.15 K, c1 = 0.01667): 0.106 ± 0.0011 S/m
- electrical conductivity (288.15 K, c1 = 0.01758): 0.108 ± 0.0011 S/m
- electrical conductivity (288.15 K, c1 = 0.01848): 0.1105 ± 0.0011 S/m
- electrical conductivity (288.15 K, c1 = 0.01936): 0.1125 ± 0.0011 S/m
- electrical conductivity (288.15 K, c1 = 0.02021): 0.1144 ± 0.0011 S/m
- electrical conductivity (288.15 K, c1 = 0.02105): 0.116 ± 0.0012 S/m
- electrical conductivity (288.15 K, c1 = 0.02188): 0.118 ± 0.0012 S/m
- electrical conductivity (288.15 K, c1 = 0.02268): 0.12 ± 0.0012 S/m
- electrical conductivity (288.15 K, c1 = 0.02347): 0.1215 ± 0.0012 S/m
- electrical conductivity (288.15 K, c1 = 0.02424): 0.1231 ± 0.0012 S/m
- electrical conductivity (288.15 K, c1 = 0.025): 0.125 ± 0.0013 S/m
- electrical conductivity (293.15 K, c1 = 0.001316): 0.0119 ± 0.00012 S/m
- electrical conductivity (293.15 K, c1 = 0.002597): 0.0226 ± 0.0002 S/m
- electrical conductivity (293.15 K, c1 = 0.003846): 0.0327 ± 0.0003 S/m
- electrical conductivity (293.15 K, c1 = 0.005063): 0.0423 ± 0.0004 S/m
- electrical conductivity (293.15 K, c1 = 0.00625): 0.0516 ± 0.0005 S/m
- electrical conductivity (293.15 K, c1 = 0.007407): 0.0604 ± 0.0006 S/m
- electrical conductivity (293.15 K, c1 = 0.008536): 0.0689 ± 0.0007 S/m
- electrical conductivity (293.15 K, c1 = 0.009638): 0.077 ± 0.0008 S/m
- electrical conductivity (293.15 K, c1 = 0.01071): 0.085 ± 0.0009 S/m
- electrical conductivity (293.15 K, c1 = 0.01177): 0.0926 ± 0.0009 S/m
- electrical conductivity (293.15 K, c1 = 0.01279): 0.1 ± 0.001 S/m
- electrical conductivity (293.15 K, c1 = 0.01379): 0.107 ± 0.0011 S/m
- electrical conductivity (293.15 K, c1 = 0.01477): 0.1119 ± 0.0011 S/m
- electrical conductivity (293.15 K, c1 = 0.01573): 0.115 ± 0.0012 S/m
- electrical conductivity (293.15 K, c1 = 0.01667): 0.118 ± 0.0012 S/m
- electrical conductivity (293.15 K, c1 = 0.01758): 0.121 ± 0.0012 S/m
- electrical conductivity (293.15 K, c1 = 0.01848): 0.1235 ± 0.0012 S/m
- electrical conductivity (293.15 K, c1 = 0.01936): 0.126 ± 0.0013 S/m
- electrical conductivity (293.15 K, c1 = 0.02021): 0.128 ± 0.0013 S/m
- electrical conductivity (293.15 K, c1 = 0.02105): 0.1303 ± 0.0013 S/m
- electrical conductivity (293.15 K, c1 = 0.02188): 0.1324 ± 0.0013 S/m
- electrical conductivity (293.15 K, c1 = 0.02268): 0.1344 ± 0.0013 S/m
- electrical conductivity (293.15 K, c1 = 0.02347): 0.136 ± 0.0014 S/m
- electrical conductivity (293.15 K, c1 = 0.02424): 0.138 ± 0.0014 S/m
- electrical conductivity (293.15 K, c1 = 0.025): 0.1403 ± 0.0014 S/m
- electrical conductivity (298.15 K, c1 = 0.001316): 0.0132 ± 0.0001 S/m
- electrical conductivity (298.15 K, c1 = 0.002597): 0.0252 ± 0.0003 S/m
- electrical conductivity (298.15 K, c1 = 0.003846): 0.0365 ± 0.0004 S/m
- electrical conductivity (298.15 K, c1 = 0.005063): 0.0473 ± 0.0005 S/m
- electrical conductivity (298.15 K, c1 = 0.00625): 0.0576 ± 0.0006 S/m
- electrical conductivity (298.15 K, c1 = 0.007407): 0.0676 ± 0.0007 S/m
- electrical conductivity (298.15 K, c1 = 0.008536): 0.0771 ± 0.0008 S/m
- electrical conductivity (298.15 K, c1 = 0.009638): 0.0862 ± 0.0009 S/m
- electrical conductivity (298.15 K, c1 = 0.01071): 0.095 ± 0.001 S/m
- electrical conductivity (298.15 K, c1 = 0.01177): 0.1035 ± 0.001 S/m
- electrical conductivity (298.15 K, c1 = 0.01279): 0.1116 ± 0.0011 S/m
- electrical conductivity (298.15 K, c1 = 0.01379): 0.119 ± 0.0012 S/m
- electrical conductivity (298.15 K, c1 = 0.01477): 0.1243 ± 0.0012 S/m
- electrical conductivity (298.15 K, c1 = 0.01573): 0.128 ± 0.0013 S/m
- electrical conductivity (298.15 K, c1 = 0.01667): 0.1315 ± 0.0013 S/m
- electrical conductivity (298.15 K, c1 = 0.01758): 0.1345 ± 0.0013 S/m
- electrical conductivity (298.15 K, c1 = 0.01848): 0.137 ± 0.0014 S/m
- electrical conductivity (298.15 K, c1 = 0.01936): 0.1401 ± 0.0014 S/m
- electrical conductivity (298.15 K, c1 = 0.02021): 0.1427 ± 0.0014 S/m
- electrical conductivity (298.15 K, c1 = 0.02105): 0.145 ± 0.0015 S/m
- electrical conductivity (298.15 K, c1 = 0.02188): 0.148 ± 0.0015 S/m
- electrical conductivity (298.15 K, c1 = 0.02268): 0.15 ± 0.0015 S/m
- electrical conductivity (298.15 K, c1 = 0.02347): 0.1524 ± 0.0015 S/m
- electrical conductivity (298.15 K, c1 = 0.02424): 0.1546 ± 0.0015 S/m
- electrical conductivity (298.15 K, c1 = 0.025): 0.157 ± 0.0016 S/m
- electrical conductivity (303.15 K, c1 = 0.001316): 0.0146 ± 0.00015 S/m
- electrical conductivity (303.15 K, c1 = 0.002597): 0.028 ± 0.0003 S/m
- electrical conductivity (303.15 K, c1 = 0.003846): 0.0406 ± 0.0004 S/m
- electrical conductivity (303.15 K, c1 = 0.005063): 0.0526 ± 0.0005 S/m
- electrical conductivity (303.15 K, c1 = 0.00625): 0.0641 ± 0.0006 S/m
- electrical conductivity (303.15 K, c1 = 0.007407): 0.0752 ± 0.0008 S/m
- electrical conductivity (303.15 K, c1 = 0.008536): 0.0859 ± 0.0009 S/m
- electrical conductivity (303.15 K, c1 = 0.009638): 0.0962 ± 0.001 S/m
- electrical conductivity (303.15 K, c1 = 0.01071): 0.106 ± 0.0011 S/m
- electrical conductivity (303.15 K, c1 = 0.01177): 0.115 ± 0.0012 S/m
- electrical conductivity (303.15 K, c1 = 0.01279): 0.1245 ± 0.0012 S/m
- electrical conductivity (303.15 K, c1 = 0.01379): 0.1325 ± 0.0013 S/m
